In PubChem BioAssay (NCI) one finds GI50 and TGI data, which are given here for eight compounds.

“And” between values parts separate entries of the source, which are not always exact repeats. Identical values can stand only once.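 Tested at 5 concentrations; 48 h exposure; 96-well plates; endpoints linearly interpolated, else capped at highest concentration. The concentration for 50% growth inhibition is given as GI50. TGI marks complete inhibition of growth.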

Some test systems named below: HCT-15 colon; HS 578T breast; SK-MEL-5 melanoma; HT29 colon; MDA-MB-435; COLO 205 colon; IGROV1 ovarian; OVCAR-4 ovarian; SW-620 colon; CAKI-1 renal.
Common to all, as to experiment: NCI-60 cell line screen, 48 h

On to `O=C1OCC2=C1C(c1ccccc1)c1cc3c(cc1N2CCO)CCC3` (stereo not drawn), for which the GI50 was 103 nM in the assay on HCT-15 colon; 73.9 nM in the assay with HS 578T breast; 76.2 nM with SK-MEL-5 melanoma; 87.8 nM in the assay with HT29 colon; 42.9 nM in the assay on MDA-MB-435; 85.4 nM with COLO 205 colon. For the same compound, the GI50 was 79.9 nM in the assay with IGROV1 ovarian, 127 nM in the assay with OVCAR-4 ovarian, 87.9 nM in the assay with SW-620 colon and 86.8 nM in the assay on CAKI-1 renal. Besides, the TGI in the assay with HCT-15 colon is more than 25000 nM; with SK-MEL-5 melanoma, 5410 nM; in the assay with MDA-MB-435, 129 nM; with COLO 205 colon it was 331 nM; with IGROV1 ovarian, 774 nM; in the assay on OVCAR-4 ovarian it was more than 25000 nM. Besides, the TGI with SW-620 colon and in the assay on CAKI-1 renal was more than 25000 nM in each case.
Consider `C[C@@]12CCC[C@@](C)(C(=O)O)C1CC[C@]13C=C(CO)[C@](O)(CCC12)C3` (stereo partly drawn), for which the GI50 with HCT-15 colon, in the assay on HS 578T breast, in the assay on SK-MEL-5 melanoma, in the assay with HT29 colon, in the assay on MDA-MB-435 and with COLO 205 colon was more than 100000 nM each time. Further, the GI50 with IGROV1 ovarian, in the assay with OVCAR-4 ovarian, with SW-620 colon and in the assay with CAKI-1 renal was more than 100000 nM each time. Moreover, the TGI with HCT-15 colon, with HS 578T breast, in the assay on SK-MEL-5 melanoma, in the assay on HT29 colon, in the assay with MDA-MB-435 and in the assay with COLO 205 colon was more than 100000 nM each time. Further, the TGI in the assay with IGROV1 ovarian, in the assay with OVCAR-4 ovarian, with SW-620 colon and in the assay on CAKI-1 renal was more than 100000 nM each time.
For `CCN(CC)CCC(CNc1c2ccc([N+](=O)[O-])cc2nc2cc(OC)c(OC)cc12)c1ccccc1` (stereo not drawn), the GI50 in the assay on HCT-15 colon is 738 nM and 1030 nM; with HS 578T breast, 528 nM and 272 nM; in the assay on SK-MEL-5 melanoma, 445 nM; with HT29 colon it was 40.5 nM and 28.9 nM; in the assay on MDA-MB-435, 161 nM and 148 nM; in the assay with COLO 205 colon, 152 nM and 89.5 nM. The GI50 with IGROV1 ovarian is 405 nM and 290 nM; with OVCAR-4 ovarian, 271 nM and 228 nM; with SW-620 colon it was 145 nM and 72.7 nM; in the assay on CAKI-1 renal, 1680 nM and 1580 nM. Further, the TGI in the assay on HCT-15 colon was 2140 nM and 3100 nM; in the assay on HS 578T breast, 2880 nM and 1200 nM; in the assay on SK-MEL-5 melanoma it was 1470 nM; with HT29 colon, 239 nM and 100 nM; with MDA-MB-435 it was 311 nM and 319 nM; with COLO 205 colon it was 448 nM and 299 nM. Besides, the TGI with IGROV1 ovarian was 1660 nM and 1020 nM; with OVCAR-4 ovarian it was 1030 nM and 863 nM; in the assay on SW-620 colon it was 1100 nM and 763 nM; in the assay with CAKI-1 renal, 3780 nM and 3760 nM.
In the case of `CCCCCCCCCCCCCCCCCC(=O)[O][Sn]([CH2]CCC)([CH2]CCC)[CH2]CCC`, the GI50 in the assay on HCT-15 colon was 146 nM; with HS 578T breast, 217 nM; in the assay with SK-MEL-5 melanoma, 141 nM; in the assay with HT29 colon it was 113 nM; with MDA-MB-435, 149 nM; in the assay with COLO 205 colon, 171 nM. The GI50 with IGROV1 ovarian was 154 nM; with OVCAR-4 ovarian, 108 nM; in the assay with SW-620 colon, 137 nM; in the assay on CAKI-1 renal, 52.4 nM. The TGI with HCT-15 colon was found to be 380 nM; in the assay on HS 578T breast, 752 nM; in the assay with SK-MEL-5 melanoma, 272 nM; in the assay with HT29 colon, 311 nM; in the assay with MDA-MB-435, 441 nM; in the assay on COLO 205 colon, 373 nM. Besides, the TGI with IGROV1 ovarian amounted to 367 nM; in the assay with OVCAR-4 ovarian, 245 nM; with SW-620 colon it was 289 nM; in the assay on CAKI-1 renal it was 214 nM.
Consider `CN(C)c1cc2c(cc1Sc1nc3c(N)nccc3n1CCNCC(C)(C)C)OCO2`, for which the GI50 in the assay on HCT-15 colon is 394 nM; in the assay with HS 578T breast it was 2040 nM; with SK-MEL-5 melanoma it was 713 nM; with HT29 colon it was 285 nM; in the assay on MDA-MB-435 it was 426 nM; in the assay on COLO 205 colon, 370 nM. Moreover, the GI50 in the assay with IGROV1 ovarian was 560 nM; in the assay on OVCAR-4 ovarian it was 6170 nM; in the assay on SW-620 colon it was 383 nM; with CAKI-1 renal, 591 nM. For the same compound, the TGI with HCT-15 colon came to 14500 nM; in the assay with HS 578T breast it was 23700 nM; with SK-MEL-5 melanoma it was 13200 nM; with HT29 colon it was 11100 nM; in the assay on MDA-MB-435, 15400 nM; with COLO 205 colon it was 11600 nM. In addition, the TGI in the assay on IGROV1 ovarian came to 21600 nM; with OVCAR-4 ovarian, 46200 nM; in the assay on SW-620 colon, 13800 nM; in the assay with CAKI-1 renal, 39700 nM.
Regarding `COc1cc2c3c(n(CCCN=[N+]=[N-])c(=O)c2cc1OC)-c1ccc(N)cc1C3=O`, the GI50 with HCT-15 colon was 378 nM; in the assay with HS 578T breast it was 1530 nM; in the assay with SK-MEL-5 melanoma, 78.4 nM; with HT29 colon, 133 nM; in the assay on MDA-MB-435, 479 nM; in the assay with COLO 205 colon, 400 nM. Besides, the GI50 is 153 nM with IGROV1 ovarian, 608 nM in the assay with OVCAR-4 ovarian, 203 nM in the assay with SW-620 colon and 132 nM with CAKI-1 renal. Also, the TGI in the assay with HCT-15 colon was 2460 nM; in the assay on HS 578T breast, more than 24900 nM; in the assay on SK-MEL-5 melanoma, 223 nM; in the assay on HT29 colon, 929 nM; in the assay with MDA-MB-435 it was 1650 nM; in the assay on COLO 205 colon it was 1230 nM. The TGI with IGROV1 ovarian was 637 nM; with OVCAR-4 ovarian, 2590 nM; in the assay on SW-620 colon, 3690 nM; in the assay on CAKI-1 renal, 2800 nM.
Turning to `C[C@H]1O[C@@H](O[C@H]2[C@@H](O)C[C@H](O[C@H]3[C@@H](O)C[C@H](O[C@H]4CC[C@]5(C)C6C[C@@H](O)[C@]7(C)[C@@H](C8=CC(=O)OC8)CC[C@]7(O)C6CC[C@@H]5C4)O[C@@H]3C)O[C@@H]2C)C[C@H](O)[C@@H]1O` (stereo partly drawn), the GI50 was 128 nM in the assay on HCT-15 colon; 31.1 nM with HS 578T breast; 47.8 nM in the assay with SK-MEL-5 melanoma; 89.3 nM in the assay with HT29 colon; 135 nM in the assay with MDA-MB-435; 146 nM in the assay with COLO 205 colon. Besides, the GI50 in the assay on IGROV1 ovarian was 145 nM; with OVCAR-4 ovarian, 101 nM; in the assay on SW-620 colon, 49 nM; in the assay with CAKI-1 renal, 85.7 nM. Moreover, the TGI in the assay on HCT-15 colon was found to be 366 nM; in the assay on HS 578T breast, 4300 nM; in the assay on SK-MEL-5 melanoma, 122 nM; with HT29 colon, 293 nM; in the assay with MDA-MB-435 it was 418 nM; in the assay on COLO 205 colon, 374 nM. For the same compound, the TGI with IGROV1 ovarian turned out to be 3450 nM; with OVCAR-4 ovarian it was 306 nM; with SW-620 colon it was 174 nM; with CAKI-1 renal, 261 nM.
On to `O=C1C(=O)c2ccccc2C=C1[N+](=O)[O-]`, for which the TGI in the assay on HCT-15 colon was more than 100000 nM; with HS 578T breast, more than 100000 nM; in the assay on SK-MEL-5 melanoma, 46400 nM; in the assay on HT29 colon, more than 100000 nM; in the assay on MDA-MB-435, 31800 nM; in the assay with COLO 205 colon, more than 100000 nM. For the same compound, the TGI in the assay with IGROV1 ovarian, with OVCAR-4 ovarian, in the assay with SW-620 colon and in the assay on CAKI-1 renal was more than 100000 nM each time.
